From paper PMC5727045, “Anti-biofilm Properties of Bacterial Di-Rhamnolipids and Their Semi-Synthetic Amide Derivatives” (Frontiers in Microbiology, 2017)
≈ marks a conversion by molar mass, not a printed value. Entries after “also recorded” stand apart in the source; their conditions may differ.

Key:
P. aeruginosa PAO1 [1] = assay: Inhibition of biofilm formation, crystal violet; assay type: cell-based, Pseudomonas aeruginosa; settings: for Biofilm formation (%): P. aeruginosa PAO1, 50 μg mL^-1
Description: (§1) Test organisms for the antibacterial assays were obtained from the National Collection of Type Cultures (NCTC) and the American Type Culture Collection (ATCC). P. aeruginosa PAO1 NCTC 10332, S. aureus ATCC 25923 and S. aureus ATCC 43300 (MRSA) and S. marcescens ATCC 27117 were used in this study. One clinical isolate of P. aeruginosa DM50 with high ability to form biofilms and resistance to metronidazole, clindamycin and amoxicillin was also included ([Glisic et al., 2016]). Bacterial strains were grown in Luria Bertani (LB) broth at 37°C on a rotary shaker at 180 rpm.
(§2) Biofilm quantification assays were performed in 96-well microtiter plates using a crystal violet (CV) method to stain adherent cells ([Merritt et al., 2005]). Overnight cultures of bacteria were diluted to 5 × 10^7 cfu mL^-1 in LB and 100 μL was added to the wells in the presence of test compounds or DMSO (0.1%, v/v). Biofilms formed for 24 h at 37°C for P. aeruginosa and S. aureus, or 30°C for S. marcescens were washed and adherent cells stained with CV 0.1% (v/v). BFIC50 (concentration of compound that inhibited biofilm formation by 50%) was determined for each compound.
The effect of rhamnolipids on P. aeruginosa biofilm formation was examined additionally by introducing 3 h adhesion phase after inoculation with 5 × 10^7 cfu mL^-1 cells. Following adhesion, the supernatant was removed and, after two washing steps with phosphate buffered saline (PBS), test compounds or DMSO were applied and the biofilms were quantified after 24 h using CV. Each biofilm formation assay was performed in six wells and repeated at least three times.

S. aureus ATCC 25923 [2] = assay: Biofilm dispersion assay, crystal violet; assay type: cell-based, Staphylococcus aureus; settings: S. aureus ATCC 25923, 50 μg mL^-1
P. aeruginosa DM50 [3] = assay: Inhibition of biofilm formation, crystal violet; assay type: cell-based, Pseudomonas aeruginosa; settings: P. aeruginosa DM50, 50 μg mL^-1
Description: as §1, §2

P. aeruginosa DM50 [4] = assay: Biofilm dispersion assay, crystal violet; assay type: cell-based, Pseudomonas aeruginosa; settings: P. aeruginosa DM50, 50 μg mL^-1
Description: as §1
(§3) An overnight culture of P. aeruginosa was diluted to 5 × 10^7 cfu mL^-1 in LB and 100 μL was added to the wells in 96-well microtiter plates and incubated for 24 h at 37°C. After removal of the supernatant and two washing steps with PBS adherent cells were treated with different concentrations of rhamnolipids or derivatives for additional 24 h and the biofilms were quantified using CV as described above. Biofilm dispersion assays were performed in six wells and repeated three times.

P. aeruginosa PAO1 [5] = assay: Biofilm dispersion assay, crystal violet; assay type: cell-based, Pseudomonas aeruginosa; settings: for Biofilm biomass (%) remained after biofilm dispersion: P. aeruginosa PAO1, 50 μg mL^-1
Description: as §1, §3

S. aureus MRSA [6] = assay: Inhibition of biofilm formation, crystal violet; assay type: cell-based, Staphylococcus aureus
Description: as §1, §2

S. aureus ATCC 25923 [7] = assay: Inhibition of biofilm formation, crystal violet; assay type: cell-based, Staphylococcus aureus; settings: S. aureus ATCC 25923, 50 μg mL^-1
Description: as §1, §2

S. marcescens ATCC 27117 [8] = assay: Biofilm dispersion assay, crystal violet; assay type: cell-based, Serratia marcescens; settings: S. marcescens ATCC 27117, 50 μg mL^-1
Description: as §1, §3

S. aureus MRSA [9] = assay: Biofilm dispersion assay, crystal violet; assay type: cell-based, Staphylococcus aureus
S. marcescens ATCC 27117 [10] = assay: Inhibition of biofilm formation, crystal violet; assay type: cell-based, Serratia marcescens; settings: S. marcescens ATCC 27117, 50 μg mL^-1
Description: as §1, §2

S. marcescens ATCC 27117 [11] = assay: MIC, broth microdilution, planktonic cells; assay type: cell-based; settings: Serratia marcescens, ATCC27117; S. marcescens ATCC 27117, 24 h incubation
Description: as §1
(§4) The minimum inhibitory concentration (MIC) of rhamnolipids and their derivatives were determined according to standard broth microdilution assays recommended by the National Committee for Clinical Laboratory Standards (M07-A8).
(§5) Stock solutions of rhamnolipids and derivatives were prepared in DMSO (50 g L^-1, w/v). The highest concentration used was 500 mg L^-1. The inoculums were 10^5 colony forming units (cfu) mL^-1.

S. aureus MRSA [12] = assay: MIC, broth microdilution, planktonic cells; assay type: cell-based; settings: Staphylococcus aureus, 24 h, 24 h incubation
Description: as §1, §4, §5

P. aeruginosa DM50 [13] = assay: MIC, broth microdilution, planktonic cells; assay type: cell-based; settings: Pseudomonas aeruginosa; P. aeruginosa DM50, 24 h incubation
Description: as §1, §4, §5

P. aeruginosa PAO1 [14] = assay: MIC, broth microdilution, planktonic cells; assay type: cell-based; settings: Pseudomonas aeruginosa; P. aeruginosa PAO1, 24 h incubation
Description: as §1, §4, §5

S. aureus ATCC 25923 [15] = assay: MIC, broth microdilution, planktonic cells; assay type: cell-based; settings: Staphylococcus aureus, ATCC25923, 24 h, S. aureus ATCC 25923, 24 h incubation
Description: as §1, §4, §5

[16] = system: MRC5 human lung fibroblasts; assay: Cytotoxicity assay, MTT; assay type: cell-based; settings: concentrations up to 100 μg mL^-1, MTT, 48 h
Procedure: MRC5 human lung fibroblasts were obtained from the ATCC. Cells were maintained as monolayer cultures in RPMI-1640 supplemented with 100 mg L^-1 streptomycin, 100 U mL^-1 penicillin and 10% (v/v) FBS (all from Sigma, Munich, Germany). Cells were grown in a humidified atmosphere of 95% air and 5% CO2 at 37°C.
Cytotoxicity on MRC5 cells was evaluated with 3-(4,5-dimethylthiazol-2-yl)-2,5-diphenyltetrazolium bromide (MTT). The assay was carried out after 48 h of cell incubation in the media containing test compounds at different concentrations and the viability was measured as described ([Mihajlovic et al., 2012]). The results are presented as the percentage of the control (untreated cells) that was arbitrarily set to 100%.

P. aeruginosa PAO1-GFP = assay: Anti-adhesion assay, GFP fluorescence; assay type: cell-based, Pseudomonas aeruginosa; settings: 2 h
Procedure: Anti-adhesion assay was performed as previously described ([Shetye et al., 2014]) with some modifications. An overnight culture of P. aeruginosa PAO1 containing pBBR2-GFP ([da Silva et al., 2014]) was subcultured (initial OD600 = 0.02) in M9+/LB (95:5) containing gentamycin (80 mg L^-1), tetracycline (20 mg L^-1), and chloramphenicol (50 mg L^-1) at 37°C in a rotary shaker (200 rpm). After reaching OD600 = 0.1, aliquots (200 μL) were transferred to the wells of black polystyrene microtiter plate with rhamnolipids, derivatives or DMSO (control). After incubation at 37°C for 2 h, bacterial cultures were discarded, and the fluorescence of adherent cells was measured after addition of fresh M9+/LB (95:5) medium using Tecan Infinite 200 Microplate reader (Tecan Group Ltd., Switzerland, lex = 500 nm, lem = 540 nm). Background signal (M9+/LB (95:5) was subtracted from all the samples. Assays were repeated three times; inhibition values are the averages of six replicate wells from one experiment.

[17] = listed as Rha-TBDMS (Lysinibacillus sp. BV152.1)
[18] = 50 μg mL^-1, listed as Rha-TBDMS (Lysinibacillus sp. BV152.1)

| Compound | Biofilm formation (%) (P. aeruginosa PAO1 [1]) | Biofilm biomass (%) remained after biofilm dispersion (S. aureus ATCC 25923 [2]) [%] | MIC (S. marcescens ATCC 27117 [11]) [µg/mL] | MIC (S. aureus MRSA [12]) [µg/mL] | MIC (P. aeruginosa DM50 [13]) [µg/mL] | MIC (P. aeruginosa PAO1 [14]) [µg/mL] | MIC (S. aureus ATCC 25923 [15]) [µg/mL] | Biofilm formation (%) (P. aeruginosa DM50 [3]) | Viability of human lung fibroblasts (MRC5) [16] | Biofilm biomass (%) remained after biofilm dispersion (P. aeruginosa DM50 [4]) [%] | Biofilm biomass (%) remained after biofilm dispersion (P. aeruginosa PAO1 [5]) [%] | Biofilm formation (%) (S. aureus MRSA [6]; 50 μg mL^-1) | Biofilm formation (%) (S. aureus ATCC 25923 [7]) | Biofilm biomass (%) remained after biofilm dispersion (S. marcescens ATCC 27117 [8]) [%] | Biofilm biomass (%) remained after biofilm dispersion (S. aureus MRSA [9]; 50 μg mL^-1) [%] | Biofilm formation (%) (S. marcescens ATCC 27117 [10]) | further results |
| --- | --- | --- | --- | --- | --- | --- | --- | --- | --- | --- | --- | --- | --- | --- | --- | --- | --- |
| CCCCCCCC(CC(=O)O)OC(=O)CC(CCCCCCC)O[C@@H]1O[C@@H](C)[C@H](O[Si](C)(C)C(C)(C)C)[C@@H](O[Si](C)(C)C(C)(C)C)[C@H]1O[C@@H]1O[C@@H](C)[C@H](O[Si](C)(C)C(C)(C)C)[C@@H](O[Si](C)(C)C(C)(C)C)[C@H]1O[Si](C)(C)C(C)(C)C (some centres unmarked) |  |  |  |  |  |  |  |  |  |  |  |  |  |  |  |  | anti-biofilm formation activity (P. aeruginosa PAO1 [1]; P. aeruginosa PAO1): no anti-biofilm formation activity; Biofilm formation (%) (P. aeruginosa PAO1 [1]; [17]): 115 ± 10%; Biofilm biomass (%) remained after biofilm dispersion (S. aureus ATCC 25923 [2]; [17]): 110 ± 22%; Biofilm formation (%) (P. aeruginosa DM50 [3]; [17]): 100 ± 8%; Biofilm biomass (%) remained after biofilm dispersion (P. aeruginosa DM50 [4]; [17]): 65 ± 1%; Biofilm biomass (%) remained after biofilm dispersion (P. aeruginosa PAO1 [5]; [17]): 80 ± 6%; Biofilm formation (%) (S. aureus MRSA [6]; [18]): 106 ± 4%; Biofilm formation (%) (S. aureus ATCC 25923 [7]; [17]): 88 ± 12%; Biofilm biomass (%) remained after biofilm dispersion (S. marcescens ATCC 27117 [8]; [17]): 99 ± 8%; Biofilm biomass (%) remained after biofilm dispersion (S. aureus MRSA [9]; [18]): 101 ± 14%; Biofilm formation (%) (S. marcescens ATCC 27117 [10]; [17]): 85 ± 1% |
| CCCCCCCC(CC(=O)O)OC(=O)CC(CCCCCCC)O[C@@H]1O[C@@H](C)[C@H](O)[C@@H](O)[C@H]1O[C@@H]1O[C@@H](C)[C@H](O)[C@@H](O)[C@H]1O (stereo partly drawn) [di-Rha, Rha-Rha-C10-C10] | 50 ± 3 | 80 ± 9 | > 500 | > 500 | > 500 | > 500 | > 500 | 109 ± 10 | not affected; also recorded: not toxic | 135 ± 10 | 77 ± 3 | 44 ± 11 | 37 ± 4 | 193 ± 8 | 82 ± 7 | 20 ± 5 | effect on biofilm formation when bacteria were left to attach prior to treatment (P. aeruginosa PAO1 [1]; P. aeruginosa PAO1, concentrations up to 50 μg mL^-1): stimulated biofilm formation; IC50 (P. aeruginosa PAO1 [1]; Pseudomonas aeruginosa, P. aeruginosa PAO1, 24 h, read-out: BFIC50 (concentration of compound that inhibited biofilm formation by 50%)): 75 µg/mL (≈ 115 µM); disruption of pre-formed biofilms (P. aeruginosa PAO1 [5]; 24 h old P. aeruginosa biofilms, 100 μg mL^-1): up to 20% |
| CCCCCCCC(CC(=O)O)OC(=O)CC(CCCCCCC)O[C@@H]1O[C@@H](C)[C@H](O[Si](C)(C)C(C)(C)C)[C@@H](O[Si](C)(C)C(C)(C)C)[C@H]1O[C@@H]1O[C@@H](C)[C@H](O[Si](C)(C)C(C)(C)C)[C@@H](O[Si](C)(C)C(C)(C)C)[C@H]1O[Si](C)(C)C(C)(C)C (some centres unmarked) [di-Rha-TBDMS (P. aeruginosa)] | 95 ± 7 | 82 ± 3 | > 500 | > 500 | > 500 | > 500 | > 500 | 73 ± 6 | not affected | 78 ± 10 | 76 ± 10 | 69 ± 11 | 88 ± 10 | 155 ± 3 | 120 ± 10 | 117 ± 4 | anti-adhesion activity (P. aeruginosa PAO1-GFP): no significant anti-adhesion activity |
